Where a name gives a salt, the structure may show the parent alone.
Target: T1, mGluR5 receptor (Sus scrofa, UniProt I3LUI7)
T1 construct: 450 μg of protein from brain homogenate with 5 nM ^3[H]-MPEP; from tissue; host or cells: pig brain halves without medulla, cerebellum and pons
Test: [3H]-MPEP mGluR5 receptor binding assay (pig brain homogenate)
Conditions: 5 nM [3H]-MPEP; for inhibition at 10 µM / % Inhibition of mGluR5 Receptor (pig) [^3H]-MPEP Bond at 10 μM: 10 μM compound; for inhibition at 10 µM: read-out: % Inhibition of mGluR5 Receptor (pig) [^3H]-MPEP Bond at 10 μM; for IC50: read-out: IC50 mGluR5 Receptor (pig) [^3H]-MPEP Bond
Summary of the method: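 Compounds at 10 μM competed with 5 nM [3H]-MPEP for binding to pig brain membranes (450 μg protein) for 60 min at room temperature in pH 8.0 Hepes buffer. Bound radioactivity was collected on glass-fibre filters and read by β-counting, with 10 μM unlabelled MPEP giving non-specific binding.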

T1 sequence (I3LUI7 19-1212): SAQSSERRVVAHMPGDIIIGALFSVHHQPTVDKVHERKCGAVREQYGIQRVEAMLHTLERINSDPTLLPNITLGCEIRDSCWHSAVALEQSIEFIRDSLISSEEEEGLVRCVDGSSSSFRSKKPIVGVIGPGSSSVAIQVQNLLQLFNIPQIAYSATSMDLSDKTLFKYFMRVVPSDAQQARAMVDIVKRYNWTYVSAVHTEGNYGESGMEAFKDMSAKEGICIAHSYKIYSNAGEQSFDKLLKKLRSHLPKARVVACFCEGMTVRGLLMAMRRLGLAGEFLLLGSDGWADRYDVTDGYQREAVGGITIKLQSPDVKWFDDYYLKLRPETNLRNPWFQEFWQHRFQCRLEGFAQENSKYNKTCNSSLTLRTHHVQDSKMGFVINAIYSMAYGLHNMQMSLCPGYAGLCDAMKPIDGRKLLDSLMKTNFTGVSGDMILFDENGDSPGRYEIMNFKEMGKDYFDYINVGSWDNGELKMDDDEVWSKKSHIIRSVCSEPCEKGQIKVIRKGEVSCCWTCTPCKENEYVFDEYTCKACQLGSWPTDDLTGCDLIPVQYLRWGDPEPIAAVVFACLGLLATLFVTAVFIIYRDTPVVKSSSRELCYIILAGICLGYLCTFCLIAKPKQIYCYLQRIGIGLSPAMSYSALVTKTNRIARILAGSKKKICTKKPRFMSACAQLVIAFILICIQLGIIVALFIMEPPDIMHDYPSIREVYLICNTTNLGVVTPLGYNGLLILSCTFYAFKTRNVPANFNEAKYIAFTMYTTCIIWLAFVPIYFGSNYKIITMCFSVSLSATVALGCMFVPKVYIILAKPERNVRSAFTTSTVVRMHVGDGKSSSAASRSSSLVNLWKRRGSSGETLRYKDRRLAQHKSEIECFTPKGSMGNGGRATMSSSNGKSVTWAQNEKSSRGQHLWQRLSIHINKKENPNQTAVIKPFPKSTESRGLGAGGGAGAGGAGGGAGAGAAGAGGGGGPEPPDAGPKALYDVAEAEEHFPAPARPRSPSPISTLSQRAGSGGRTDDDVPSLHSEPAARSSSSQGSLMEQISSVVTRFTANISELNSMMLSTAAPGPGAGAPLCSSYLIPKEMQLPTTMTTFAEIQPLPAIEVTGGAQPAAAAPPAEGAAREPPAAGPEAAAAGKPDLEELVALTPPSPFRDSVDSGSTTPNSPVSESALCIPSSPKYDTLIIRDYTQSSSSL

| inhibition at 10 µM [%] | SMILES | other results |
| --- | --- | --- |
| 55 | CN(C)CC(=O)N(Cc1cc(-c2ccc3ncnc(NC(C)(C)C)c3c2)ccc1F)C1CC1 [Example 861, N-(5-(4-(tert-butylamino)quinazolin-6-yl)-2-fluorobenzyl)-N-cyclopropyl-2-(dimethylamino)acetamide] |  |
| 53 | O=S(=O)(c1cccc2cccnc12)N(Cc1cc(-c2ccc3ncnc(NC4CC4)c3c2)ccc1F)C1CC1 [Example 415, N-cyclopropyl-N-(5-(4-(cyclopropylamino)quinazolin-6-yl)-2-fluorobenzyl)quinoline-8-sulfonamide] |  |
| 46 | CC(C)CN(Cc1cccc(-c2ccc3ncnc(N4CCOCC4)c3c2)c1)C(=O)c1cccs1 [Example 29, thiophene-2-carboxylic acid isobutyl-[3-(4-morpholin-4-yl-quinazolin-6-yl)-benzyl]-amide] |  |
|  | C=CCN(Cc1cccc(-c2ccc3ncnc(NC4CC4)c3c2)c1)C(C)=O [Example 886, N-allyl-N-(3-(4-(cyclopropylamino)quinazolin-6-yl)benzyl)acetamide] | IC50: 1.98 µM |
|  | Cc1cc2ncnc(NC3CC3)c2cc1-c1cccc(CN(C2CC2)S(=O)(=O)c2ccccc2)c1 [Example 721, N-cyclopropyl-N-(3-(4-(cyclopropylamino)-7-methylquinazolin-6-yl)benzyl)benzole sulfonamide] | % Inhibition of mGluR5 Receptor (pig) [^3H]-MPEP Bond at 10 μM: 87% |
| 37 | CC(C)Nc1ncnc2ccc(-c3cccc(CN(Cc4ccccc4)C(=O)c4ccc(C#N)cc4)c3)cc12 [Example 44, N-benzyl-4-cyano-N-[3-(4-isopropylamino-quinazolin-6-yl)-benzyl]-benzamide] |  |
|  | O=C(c1ccno1)N(Cc1cccc(-c2ccc3ncnc(NC4CC4)c3c2)c1)C1CC1 [Example 253, isoxazole-5-carboxylic acid cyclopropyl-[3-(4-cyclopropylamino-quinazolin-6-yl)-benzyl]-amide] | IC50: 1.31 µM |
| 81 | O=C(c1cccs1)N(Cc1cccc(-c2cc(F)c3ncnc(NC4CC4)c3c2)c1)C1CC1 [Example 685, N-cyclopropyl-N-(3-(4-(cyclopropylamino)-8-fluoroquinazolin-6-yl)benzyl)thiophene-2-carboxamide] |  |
| 85 | Cc1nc(NC2CC2)c2cc(-c3cccc(CN(C(=O)c4c(F)c(F)c(F)c(F)c4F)C4CC4)c3)ccc2n1 [Example 447, N-cyclopropyl-N-(3-(4-(cyclopropylamino)-2-methylquinazolin-6-yl)benzyl)-2,3,4,5,6-pentafluorobenzamide] |  |
|  | CC(C)(C)Nc1ncnc2ccc(-c3ccc(F)c(CN(C4CC4)S(=O)(=O)Cc4ccccc4)c3)cc12 [Example 833, N-(5-(4-(tert-butylamino)quinazolin-6-yl)-2-fluorobenzyl)-N-cyclopropyl-1-phenyl methane sulfonamide] | % Inhibition of mGluR5 Receptor (pig) [^3H]-MPEP Bond at 10 μM: 43% |
| 71 | O=C(C1CCCCC1)N(Cc1cc(-c2ccc3ncnc(NC4CC4)c3c2)ccc1F)C1CC1 [Example 452, N-cyclopropyl-N-(5-(4-(cyclopropylamino)quinazolin-6-yl)-2-fluorobenzyl)cyclohexane carboxamide] |  |
|  | O=S(=O)(c1cccc(C(F)(F)F)c1)N(Cc1cc(-c2ccc3ncnc(NC4CC4)c3c2)ccn1)C1CC1 [Example 858, N-cyclopropyl-N-((4-(4-(cyclopropylamino)quinazolin-6-yl)pyridin-2-yl)methyl)-3-(trifluoromethyl)benzole sulfonamide] | % Inhibition of mGluR5 Receptor (pig) [^3H]-MPEP Bond at 10 μM: 85% |
| 92 | CC(C)S(=O)(=O)N(Cc1cc(-c2ccc3ncnc(NC4CC4)c3c2)ccc1F)C1CC1 [Example 429, N-cyclopropyl-N-(5-(4-(cyclopropylamino)quinazolin-6-yl)-2-fluorobenzyl)propane-2-sulfonamide] |  |
|  | CC(C)(C)Nc1ncnc2ccc(-c3ccc(F)c(CN(C(=O)c4ccccc4)C4CC4)c3)cc12 [Example 837, N-(5-(4-(tert-butylamino)quinazolin-6-yl)-2-fluorobenzyl)-N-cyclopropyl benzamide] | % Inhibition of mGluR5 Receptor (pig) [^3H]-MPEP Bond at 10 μM: 86% |
| 61 | CCCN(Cc1cccc(-c2ccc3ncnc(Nc4ccccc4)c3c2)c1)C(=O)c1ccccn1 [Example 95, pyridine-2-carboxylic acid [3-(4-phenylamino-quinazolin-6-yl)-benzyl]-propyl-amide] |  |
|  | COc1ccc(CN(C(=O)c2ccccc2)C2CC2)cc1-c1ccc2ncnc(NC3CC3)c2c1 [Example 268, N-cyclopropyl-N-(3-(4-(cyclopropylamino)quinazolin-6-yl)-4-methoxybenzyl)benzamide] | IC50: 5.41 µM |
| 44 | CCCN(Cc1cccc(-c2ccc3ncnc(Nc4ccccc4)c3c2)c1)C(=O)COc1ccccc1 [Example 90, 2-phenoxy-N-[3-(4-phenylamino-quinazolin-6-yl)-benzyl]-N-propyl-acetamide] |  |
|  | COc1ccc(S(=O)(=O)N(Cc2cc(-c3ccc4ncnc(NC5CC5)c4c3)ccn2)C2CC2)cc1 [Example 806, N-cyclopropyl-N-((4-(4-(cyclopropylamino)quinazolin-6-yl)pyridin-2-yl)methyl)-4-methoxybenzole sulfonamide] | % Inhibition of mGluR5 Receptor (pig) [^3H]-MPEP Bond at 10 μM: 89% |

| inhibition at 10 µM [%] | SMILES | other results |
| --- | --- | --- |
| 65 | NC1(C(=O)NCc2cccc(-c3ccc4ncnc(NC5CC5)c4c3)c2)CC1 [Example 869, 1-amino-N-(3-(4-(cyclopropylamino)quinazolin-6-yl)benzyl)cyclopropane carboxamide dihydrochloride] |  |
| 36 | CC(C)CN(Cc1cccc(-c2ccc3ncnc(N4CCOCC4)c3c2)c1)C(=O)c1cnccn1 [Example 13, pyrazine-2-carboxylic acid isobutyl-[3-(4-morpholin-4-yl-quinazolin-6-yl)-benzyl]-amide] |  |
| 77 | O=C(c1cccc(C(F)(F)F)c1)N(Cc1cc(-c2ccc3ncnc(NC4CC4)c3c2)ccc1F)C1CC1 [Example 405, N-cyclopropyl-N-(5-(4-(cyclopropylamino)quinazolin-6-yl)-2-fluorobenzyl)-3-(trifluoromethyl)benzamide] |  |
|  | O=C(c1ccccn1)N(Cc1cccc(-c2cc(F)c3ncnc(NC4CC4)c3c2)c1)C1CC1 [Example 708, N-cyclopropyl-N-(3-(4-(cyclopropylamino)-8-fluoroquinazolin-6-yl)benzyl)picolinamide] | IC50: 0.13 µM |
| 82 | CCCCC(=O)N(Cc1cccc(-c2cc(F)c3ncnc(NC4CC4)c3c2)c1)C1CC1 [Example 654, N-cyclopropyl-N-(3-(4-(cyclopropylamino)-8-fluoroquinazolin-6-yl)benzyl)pentanamide] |  |
| 30 | CN(C)CC(=O)N(Cc1cccc(-c2ccc3ncnc(NC4CC4)c3c2)c1)C1CC1 [Example 173, N-cyclopropyl-N-[3-(4-cyclopropylamino-quinazolin-6-yl)-benzyl]-2-dimethylamino-acetamide] |  |
| 83 | Cc1cc2ncnc(NC3CC3)c2cc1-c1cccc(CN(C(=O)c2ccco2)C2CC2)c1 [Example 691, N-cyclopropyl-N-(3-(4-(cyclopropylamino)-7-methylquinazolin-6-yl)benzyl)furan-2-carboxamide] |  |
| 47 | CCCN(Cc1cccc(-c2ccc3ncnc(Nc4ccccc4)c3c2)c1)C(=O)c1cccs1 [Example 116, thiophene-2-carboxylic acid [3-(4-phenylamino-quinazolin-6-yl)-benzyl]-propyl-amide] |  |
|  | CC(=O)N(Cc1cccc(-c2ccc3ncnc(NC4CC4)c3c2)n1)C1CC1 [Example 890, N-cyclopropyl-N-((6-(4-(cyclopropylamino)quinazolin-6-yl)pyridin-2-yl)methyl)acetamide] | IC50: 4.62 µM |
| 32 | CCN(CC)c1ncnc2ccc(-c3cccc(CN(C)C(=O)c4ccc(C)cc4)c3)cc12 [Example 75, N-[3-(4-diethylamino-quinazolin-6-yl)-benzyl]-4,N-dimethyl-benzamide] |  |
|  | CC(C)(C)Nc1ncnc2ccc(-c3ccc(F)c(CN(C(=O)c4ccccn4)C4CC4)c3)cc12 [Example 826, N-(5-(4-(tert-butylamino)quinazolin-6-yl)-2-fluorobenzyl)-N-cyclopropyl picolinamide] | % Inhibition of mGluR5 Receptor (pig) [^3H]-MPEP Bond at 10 μM: 98% |
| 70 | CNc1ncnc2ccc(-c3ccc(F)c(CN(C)C(=O)c4c(F)c(F)c(F)c(F)c4F)c3)cc12 [Example 585, 2,3,4,5,6-pentafluoro-N-(2-fluoro-5-(4-(methylamino)quinazolin-6-yl)benzyl)-N-methylbenzamide] |  |
| 34 | Cc1cc(C(=O)N(Cc2cccc(-c3ccc4ncnc(NCCc5ccccc5)c4c3)c2)C2CC2)n(C)n1 [Example 369, N-cyclopropyl-1,3-dimethyl-N-(3-(4-(phenethylamino)quinazolin-6-yl)benzyl)-1H-pyrazole-5-carboxamide] |  |
| 93 | O=C(c1ccco1)N(Cc1cc(-c2ccc3ncnc(NC4CC4)c3c2)ccc1Cl)C1CC1 [Example 746, N-(2-chloro-5-(4-(cyclopropylamino)quinazolin-6-yl)benzyl)-N-cyclopropylfuran-2-carboxamide] |  |
|  | CC(=O)N(Cc1cc(-c2ccc3ncnc(NC4CC4)c3c2)ccc1F)C(C)(C)C [Example 279, N-tert-butyl-N-(5-(4-(cyclopropylamino)quinazolin-6-yl)-2-fluorobenzyl)acetamide] | IC50: 9.42 µM |
|  | CC(C)(C)Nc1ncnc2ccc(-c3ccc(F)c(CN(C(=O)c4cc(Cl)cc(Cl)c4)C4CC4)c3)cc12 [Example 820, N-(5-(4-(tert-butylamino)quinazolin-6-yl)-2-fluorobenzyl)-3,5-dichloro-N-cyclopropyl benzamide] | % Inhibition of mGluR5 Receptor (pig) [^3H]-MPEP Bond at 10 μM: 48% |
|  | CC(C)(C)Nc1ncnc2ccc(-c3ccc(F)c(CNC4CC4)c3)cc12 [Example 322, N-tert-butyl-6-(3-((cyclopropylamino)methyl)-4-fluorophenyl)quinazoline-4-amine] | IC50: 2.98 µM |
